Test system: 188146-221-R-J1-PDC complex spheroid viability
Assay: Anticancer human tumor 188146-221-R-J1-PDC patient-derived colon adenocarcinoma cell line growth inhibition [POLQ]
Settings: for IC50: curve of first compound; for viability, T/C: stronger effect = lower value
How it was run: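 Patient-derived tumour cells were co-cultured with HUVEC and mesenchymal stem cells as multicellular spheroids at 37 °C. They were treated with POLQ inhibitors (novobiocin, ART-558, RP6685) alone or combined with other agents. Top concentrations were at or near clinical Cmax (otherwise 10 microM; SN-38 at 1 microM), decreasing in half-log steps.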

[1] = second compound 0.0316 µM, first compound 0.0316 µM
[2] = second compound 0.0316 µM, first compound 0.1 µM
[3] = second compound 0.1 µM, first compound 0.0316 µM
[4] = second compound 0.1 µM, first compound 0.1 µM
[5] = second compound 0.316 µM, first compound 0.0316 µM
[6] = second compound 0.316 µM, first compound 0.1 µM
[7] = second compound 1 µM, first compound 0.0316 µM
[8] = second compound 1 µM, first compound 0.1 µM
[9] = second compound 3.16 µM, first compound 0.0316 µM
[10] = second compound 3.16 µM, first compound 0.1 µM
[11] = second compound 10 µM, first compound 0.0316 µM
[12] = second compound 10 µM, first compound 0.1 µM
[13] = second compound 0.0316 µM, first compound 0.316 µM
[14] = second compound 0.0316 µM, first compound 1 µM
[15] = second compound 0.0316 µM, first compound 3.16 µM
[16] = second compound 0.0316 µM, first compound 10 µM
[17] = second compound 0.1 µM, first compound 0.316 µM
[18] = second compound 0.1 µM, first compound 1 µM
[19] = second compound 0.1 µM, first compound 3.16 µM
[20] = second compound 0.1 µM, first compound 10 µM
[21] = second compound 0.316 µM, first compound 0.316 µM
[22] = second compound 0.316 µM, first compound 1 µM
[23] = second compound 0.316 µM, first compound 3.16 µM
[24] = second compound 0.316 µM, first compound 10 µM
[25] = second compound 1 µM, first compound 0.316 µM
[26] = second compound 1 µM, first compound 1 µM
[27] = second compound 1 µM, first compound 3.16 µM
[28] = second compound 1 µM, first compound 10 µM
[29] = second compound 3.16 µM, first compound 0.316 µM
[30] = second compound 3.16 µM, first compound 1 µM
[31] = second compound 3.16 µM, first compound 3.16 µM
[32] = second compound 3.16 µM, first compound 10 µM
[33] = second compound 10 µM, first compound 0.316 µM
[34] = second compound 10 µM, first compound 1 µM
[35] = second compound 10 µM, first compound 3.16 µM
[36] = second compound 10 µM, first compound 10 µM
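Also: spheroids exposed to compounds for seven days.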
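For viability, T/C in this document: 100% = DMSO vehicle control viability.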

`Cn1ncnc1[C@H]1c2n[nH]c(=O)c3cc(F)cc(c23)N[C@@H]1c1ccc(F)cc1` + Cc1cccc(N(C)C(=O)C2C(O)CCN2c2nc(C)cc(C(F)(F)F)c2C#N)c1 was tested, and the IC50 (second compound 0.0316 µM) was > 0.1 µM, the IC50 (second compound 0.1 µM) was > 0.1 µM and the IC50 (second compound 0.316 µM) was > 0.1 µM. The IC50 (second compound 1 µM) was > 0.1 µM, the IC50 (second compound 3.16 µM) was > 0.1 µM and the IC50 (second compound 10 µM) was > 0.1 µM. The viability, T/C (second compound 0.0316 µM, first compound 0.000316 µM) was 97.2%, the viability, T/C (second compound 0.0316 µM, first compound 0.001 µM) was 97.4% and the viability, T/C (second compound 0.0316 µM, first compound 0.00316 µM) was 91.8%. For the same compound, the viability, T/C (second compound 0.0316 µM, first compound 0.01 µM) was 98.3%, the viability, T/C [1] was 99.3% and the viability, T/C [2] was 88%. For the same compound, the viability, T/C (second compound 0.1 µM, first compound 0.000316 µM) was 106%, the viability, T/C (second compound 0.1 µM, first compound 0.001 µM) was 107% and the viability, T/C (second compound 0.1 µM, first compound 0.00316 µM) was 101%. For the same compound, the viability, T/C (second compound 0.1 µM, first compound 0.01 µM) was 84.8%, the viability, T/C [3] was 89.9% and the viability, T/C [4] was 103%. For the same compound, the viability, T/C (second compound 0.316 µM, first compound 0.000316 µM) was 101%, the viability, T/C (second compound 0.316 µM, first compound 0.001 µM) was 104% and the viability, T/C (second compound 0.316 µM, first compound 0.00316 µM) was 101%. It also gave a viability, T/C (second compound 0.316 µM, first compound 0.01 µM) of 101%, a viability, T/C [5] of 90.8% and a viability, T/C [6] of 104%. It also gave a viability, T/C (second compound 1 µM, first compound 0.000316 µM) of 107%, a viability, T/C (second compound 1 µM, first compound 0.001 µM) of 99.6% and a viability, T/C (second compound 1 µM, first compound 0.00316 µM) of 105%. The viability, T/C (second compound 1 µM, first compound 0.01 µM) was 102%, the viability, T/C [7] was 89% and the viability, T/C [8] was 93.5%. The viability, T/C (second compound 3.16 µM, first compound 0.000316 µM) was 100%, the viability, T/C (second compound 3.16 µM, first compound 0.001 µM) was 105% and the viability, T/C (second compound 3.16 µM, first compound 0.00316 µM) was 95.4%. For the same compound, the viability, T/C (second compound 3.16 µM, first compound 0.01 µM) was 90%, the viability, T/C [9] was 95.4% and the viability, T/C [10] was 94.2%. It also gave a viability, T/C (second compound 10 µM, first compound 0.000316 µM) of 96.4%, a viability, T/C (second compound 10 µM, first compound 0.001 µM) of 91.8% and a viability, T/C (second compound 10 µM, first compound 0.00316 µM) of 90.6%. It also gave a viability, T/C (second compound 10 µM, first compound 0.01 µM) of 87.8%, a viability, T/C [11] of 90.8% and a viability, T/C [12] of 94.6%.
`CNCc1ccc(-c2[nH]c3cc(F)cc4c3c2CCNC4=O)cc1` + Nc1ccc(C#CCN(C(=O)Cc2ncc(C(F)(F)F)cc2C(F)(F)F)c2ccc(F)cc2)nn1 was tested, and the IC50 (second compound 0.0316 µM) was > 10 µM, the IC50 (second compound 0.1 µM) was > 10 µM and the IC50 (second compound 0.316 µM) was > 10 µM. The IC50 (second compound 1 µM) was > 10 µM, the IC50 (second compound 3.16 µM) was > 10 µM and the IC50 (second compound 10 µM) was > 10 µM. The viability, T/C [1] was 114%, the viability, T/C [2] was 107% and the viability, T/C [13] was 109%. For the same compound, the viability, T/C [14] was 106%, the viability, T/C [15] was 103% and the viability, T/C [16] was 120%. It also gave a viability, T/C [3] of 111%, a viability, T/C [4] of 104% and a viability, T/C [17] of 100%. The viability, T/C [18] was 113%, the viability, T/C [19] was 108% and the viability, T/C [20] was 116%. It also gave a viability, T/C [5] of 114%, a viability, T/C [6] of 100% and a viability, T/C [21] of 85.3%. It also gave a viability, T/C [22] of 110%, a viability, T/C [23] of 123% and a viability, T/C [24] of 119%. The viability, T/C [7] was 106%, the viability, T/C [8] was 99.2% and the viability, T/C [25] was 93.5%. It also gave a viability, T/C [26] of 111%, a viability, T/C [27] of 104% and a viability, T/C [28] of 100%. The viability, T/C [9] was 102%, the viability, T/C [10] was 94.7% and the viability, T/C [29] was 99.5%. The viability, T/C [30] was 109%, the viability, T/C [31] was 110% and the viability, T/C [32] was 103%. The viability, T/C [11] was 114%, the viability, T/C [12] was 115% and the viability, T/C [33] was 112%. It also gave a viability, T/C [34] of 108%, a viability, T/C [35] of 120% and a viability, T/C [36] of 130%.
For `CCc1cc2c(N3CCc4c(cc(Cn5ccnc5)cc4-c4cn(C)nc4C(F)(F)F)C3=O)ccnc2c(OC)n1` + Cc1cccc(N(C)C(=O)C2C(O)CCN2c2nc(C)cc(C(F)(F)F)c2C#N)c1, the IC50 (second compound 0.0316 µM) was 9.01 µM, the IC50 (second compound 0.1 µM) was > 10 µM and the IC50 (second compound 0.316 µM) was 8.88 µM. The IC50 (second compound 1 µM) was 7.87 µM, the IC50 (second compound 3.16 µM) was 8.27 µM and the IC50 (second compound 10 µM) was 5.92 µM. It also gave a viability, T/C [1] of 90.5%, a viability, T/C [2] of 92% and a viability, T/C [13] of 93.5%. It also gave a viability, T/C [14] of 102%, a viability, T/C [15] of 67.8% and a viability, T/C [16] of 48.2%. The viability, T/C [3] was 117%, the viability, T/C [4] was 78.8% and the viability, T/C [17] was 97.8%. The viability, T/C [18] was 90.8%, the viability, T/C [19] was 77.8% and the viability, T/C [20] was 49.8%. The viability, T/C [5] was 107%, the viability, T/C [6] was 114% and the viability, T/C [21] was 85.2%. It also gave a viability, T/C [22] of 78.6%, a viability, T/C [23] of 66.5% and a viability, T/C [24] of 47.1%. The viability, T/C [7] was 107%, the viability, T/C [8] was 98.2% and the viability, T/C [25] was 91.5%. For the same compound, the viability, T/C [26] was 105%, the viability, T/C [27] was 71% and the viability, T/C [28] was 44.4%. It also gave a viability, T/C [9] of 90.1%, a viability, T/C [10] of 91.4% and a viability, T/C [29] of 91.6%. For the same compound, the viability, T/C [30] was 81.7%, the viability, T/C [31] was 66.6% and the viability, T/C [32] was 46.7%. It also gave a viability, T/C [11] of 92.5%, a viability, T/C [12] of 82.5% and a viability, T/C [33] of 74.1%. For the same compound, the viability, T/C [34] was 69.6%, the viability, T/C [35] was 61.2% and the viability, T/C [36] was 40.7%.

From PubChem BioAssay AID1963851 (Molecular Pharmacology Branch, DTP, NCI, 2024)
